Test results published in US8143259B2, “Cold menthol receptor antagonists” (Janssen Pharmaceutica, NV, priority 2008, dated 2012).
pIC50: −log10 of the molar value. “And” between values parts separate entries of the source, which are not always exact repeats. Equal values may be shown once.

Target: T1, canine TRPM8 (Canis lupus familiaris, UniProt Q1A7N1)
T1 construct: expressed in transfected cells
Assay: In Vitro Canine TRPM8 Functional Assay (Ca2+ fluorescence, icilin activation)
Format: cell-based
Details: for inhibition at 1 µM: HEK293, 1 μM compound; for pIC50: HEK293 cells stably expressing canine TRPM8, icilin activation, Ca2+ fluorescence; for inhibition at 0.5 µM: HEK293, 0.5 μM compound; for % Inh @ 0.5 μM: 0.5 μM compound
Procedure, shortened: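 HEK293 cells stably expressing canine TRPM8, loaded with Calcium 3 dye; compounds added 5 min before icilin at a concentration giving ~80% maximal response. Peak icilin-evoked Ca2+ fluorescence, basal-subtracted and normalised to maximal response, fitted by sigmoidal nonlinear regression; quadruplicate wells.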

T1 sequence (Q1A7N1 1-1104): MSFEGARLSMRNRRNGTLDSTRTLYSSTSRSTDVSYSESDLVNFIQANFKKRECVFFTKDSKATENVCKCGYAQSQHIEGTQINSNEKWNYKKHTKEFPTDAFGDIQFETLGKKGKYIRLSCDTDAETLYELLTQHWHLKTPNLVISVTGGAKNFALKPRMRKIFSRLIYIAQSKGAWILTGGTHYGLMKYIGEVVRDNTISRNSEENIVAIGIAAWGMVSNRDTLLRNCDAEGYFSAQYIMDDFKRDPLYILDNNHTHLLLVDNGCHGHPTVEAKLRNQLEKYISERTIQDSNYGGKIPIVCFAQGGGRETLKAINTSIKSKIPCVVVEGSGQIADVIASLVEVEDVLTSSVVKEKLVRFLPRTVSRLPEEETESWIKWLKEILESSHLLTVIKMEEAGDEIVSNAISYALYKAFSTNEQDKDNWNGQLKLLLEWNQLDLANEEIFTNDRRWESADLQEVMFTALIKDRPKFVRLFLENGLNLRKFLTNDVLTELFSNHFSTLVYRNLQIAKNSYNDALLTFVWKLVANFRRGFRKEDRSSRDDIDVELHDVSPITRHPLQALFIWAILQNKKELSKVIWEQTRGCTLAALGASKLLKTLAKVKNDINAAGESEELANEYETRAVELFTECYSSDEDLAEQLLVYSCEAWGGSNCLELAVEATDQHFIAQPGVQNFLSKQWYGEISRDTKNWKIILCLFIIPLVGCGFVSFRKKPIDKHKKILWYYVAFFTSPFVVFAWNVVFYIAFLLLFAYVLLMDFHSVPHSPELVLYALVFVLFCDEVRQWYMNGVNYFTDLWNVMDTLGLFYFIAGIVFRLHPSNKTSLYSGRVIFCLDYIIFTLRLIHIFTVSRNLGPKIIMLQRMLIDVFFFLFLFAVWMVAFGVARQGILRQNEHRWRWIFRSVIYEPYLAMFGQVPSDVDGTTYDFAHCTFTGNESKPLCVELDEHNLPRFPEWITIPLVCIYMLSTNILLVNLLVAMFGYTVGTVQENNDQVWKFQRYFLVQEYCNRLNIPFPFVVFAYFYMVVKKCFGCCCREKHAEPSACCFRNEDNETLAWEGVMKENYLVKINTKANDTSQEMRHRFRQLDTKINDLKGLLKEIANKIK

Compound	inhibition at 1 µM (canine TRPM8 HEK293, icilin) [%]	pIC50	inhibition at 0.5 µM (canine TRPM8 HEK293, icilin) [%]	% Inh @ 0.5 μM (canine TRPM8 HEK293, icilin) [%]	inhibition at 0.2 µM (HEK293, 0.2 μM compound, canine TRPM8 HEK293, icilin) [%]
CC(C)(C)c1ccc(C(Nc2ccccc2)C(=O)N2CCCCC2c2ccccc2)cc1 (stereo not shown) [Cpd 11]	103	6.77			
CC(C)(C)c1ccc(C(Nc2ccccc2)C(=O)N2CCCC2c2ccccc2)cc1 (stereo not shown) [Cpd 12]	103	7.22			
CC(C)(C)c1ccc(C(Nc2ccccc2)C(=O)N2CCC(c3ccccc3)C2)cc1 (stereo not shown) [Cpd 13]	103	6.49			
CC(C)(C)c1ccc(C(Nc2ccccc2)C(=O)N2CCCCC2Cc2ccccc2)cc1 (stereo not shown) [Cpd 14]	102	6.38			
CC(C)(C)c1ccc(C(Nc2ccccc2)C(=O)N2CCc3ccccc32)cc1 (stereo not shown) [Cpd 15]	94.8	6.59			
O=C(C(Nc1ccccc1)c1ccc(C(F)(F)F)cc1)N1CCCC1c1ccccc1 (stereo not shown) [Cpd 17]	98.2	7.22			
CC(C)(C)c1ccc(C(Nc2ccccc2)C(=O)N2CCCCCC2c2ccccc2)cc1 (stereo not shown) [Cpd 18]	95.4	6.46			
O=C(C(Nc1ccccc1)c1ccc(C(F)(F)F)cc1)N1CCCC1c1cccnc1 (stereo not shown) [Cpd 19]	100	6.55			
O=C(C(Nc1ccccc1)c1ccc(C(F)(F)F)cc1)N1CCCC1c1ccccc1F (stereo not shown) [Cpd 20]	101	7.52			
O=C(C(Nc1ccccc1)c1ccc(C(F)(F)F)cc1)N1CCCC1c1cccs1 (stereo not shown) [Cpd 24]		7.83	102		
O=C(C(Nc1ccccc1)c1ccc(C(F)(F)F)cc1)N1CCCC1c1cc2ccccc2[nH]1 (stereo not shown) [Cpd 25]		6.85	102		
O=C(C(Nc1ccccc1)c1ccc(C(F)(F)F)cc1)N1CCCC1c1cc2ccccc2[nH]1 (stereo not shown) [Cpd 26]				56.872	
Cc1cccc2c1N(C(=O)C(Nc1ccccc1)c1ccc(C(F)(F)F)cc1)CC2 (stereo not shown) [Cpd 27]		6.50	93.2		
O=C(C(Nc1ccccc1)c1ccc(C(F)(F)F)cc1)N1CCCC1c1ccncc1 (stereo not shown) [Cpd 28]		7.04	103		
O=C(C(Nc1ccccc1)c1ccc(C(F)(F)F)cc1)N1CCCC1c1ccccc1Br (stereo not shown) [Cpd 29]		7.39	104		
Cc1ccccc1C1CCCN1C(=O)C(Nc1ccccc1)c1ccc(C(F)(F)F)cc1 (stereo not shown) [Cpd 32]		7.51	104		
O=C(C(Nc1ccccc1)c1ccc(C(F)(F)F)cc1)N1CCc2ccccc21 (stereo not shown) [Cpd 33]		6.70	96.5		
Cc1ccccc1NC(C(=O)N1CCc2ccccc21)c1ccc(C(F)(F)F)cc1 (stereo not shown) [Cpd 34, 1-(Indolin-1-yl)-2-(o-tolylamino)-2-(4-(trifluoromethyl)phenyl)-ethanone]		6.79	102		
O=C(C(Nc1ccccc1F)c1ccc(C(F)(F)F)cc1)N1CCc2ccccc21 (stereo not shown) [Cpd 36]		6.34	90.7		
O=C(C(c1ccc(C(F)(F)F)cc1)N1CCc2ccccc21)N1CCc2ccccc21 (stereo not shown) [Cpd 42]	29	6.64	102		
COc1ccccc1C1CCCN1C(=O)C(Nc1ccccc1)c1ccc(C(F)(F)F)cc1 (stereo not shown) [Cpd 43]		7.48	101		
O=C(C(Nc1ccccc1)c1ccc(C(F)(F)F)cc1)N1CCCCC1c1ccccc1 (stereo not shown) [Cpd 44]		7.24	101		

Compound	inhibition at 1 µM (canine TRPM8 HEK293, icilin) [%]	pIC50	inhibition at 0.5 µM (canine TRPM8 HEK293, icilin) [%]	% Inh @ 0.5 μM (canine TRPM8 HEK293, icilin) [%]	inhibition at 0.2 µM (HEK293, 0.2 μM compound, canine TRPM8 HEK293, icilin) [%]
O=C(C(Nc1ccccc1)c1ccc(C(F)(F)F)cc1)N1CCCC1c1nccs1 (stereo not shown) [Cpd 49]		7.11	102		
O=C(C(Nc1ccccc1)c1ccc(C(F)(F)F)cc1)N1CCCC1c1ccccn1 (stereo not shown) [Cpd 50]		6.42	83.6		
O=C(C(Nc1ccccc1)c1ccc(C(F)(F)F)cc1)N1CCCC1c1ccco1 (stereo not shown) [Cpd 52]		7.70	97.8		
CC(C)(C)c1ccc(C(Nc2ccccc2)C(=O)N2CCCC2c2ccncc2)cc1 (stereo not shown) [Cpd 53]		7.27	99		
CC(C)(C)c1ccc(C(Nc2ccccc2)C(=O)N2CCCC2c2ccccn2)cc1 (stereo not shown) [Cpd 54]				69.055	
CC(C)(C)c1ccc(C(Nc2ccccc2)C(=O)N2CCCC2c2ccccn2)cc1 (stereo not shown) [Cpd 55]		6.68	99.9		
N#Cc1ccc(C(Nc2ccccc2F)C(=O)N2CCCC2c2ccccc2Cl)cc1 (stereo not shown) [Cpd 62]		7.11	103		
O=C(NN1CCCC1c1ccccc1Cl)C(Nc1ccccc1)c1ccc(C(F)(F)F)cc1 (stereo not shown) [Cpd 63, N-[2-(2-Chloro-phenyl)-pyrrolidin-1-yl]-2-phenylamino-2-(4-trifluoromethyl-phenyl)-acetamide]			36		
O=C(C(Nc1ccccc1F)c1ccc(C(F)(F)F)cc1)N1Cc2ccccc2C1 (stereo not shown) [Cpd 64]		7.66 and 7.60	102		100
O=C(C(Nc1ccccc1F)c1ccc(C(F)(F)F)cc1)N1CCc2ccccc2C1 (stereo not shown) [Cpd 65]		7.32	100		
COc1ccc(C(Nc2ccccc2)C(=O)N2CCCC2c2ccccc2Cl)cc1 (stereo not shown) [Cpd 66]		7.55	102		
O=C(C(Nc1ccccc1)c1ccc(Br)cc1)N1CCCC1c1ccccc1Cl (stereo not shown) [Cpd 67]		7.38	102		
O=C(C(Nc1ccccc1)c1ccc(Br)cc1)N1CCCC1c1ccccc1 (stereo not shown) [Cpd 70]		7.64	103		
O=C(C(Nc1ccccc1)c1ccc(Br)cc1)N1Cc2ccccc2C1 (stereo not shown) [Cpd 71]		7.13	91		
COc1ccc(C(Nc2ccccc2)C(=O)N2CCCC2c2ccccc2)cc1 (stereo not shown) [Cpd 72]		7.34	102		
O=C(C(Nc1ccc(F)cc1)c1ccc(C(F)(F)F)cc1)N1CCCC1c1ccccc1Cl (stereo not shown) [Cpd 74]		7.14	98		
O=C(C(Nc1ccc(F)cc1)c1ccc(C(F)(F)F)cc1)N1Cc2ccccc2C1 (stereo not shown) [Cpd 77]		7.08	98		
O=C(C(Nc1cccc(F)c1)c1ccc(C(F)(F)F)cc1)N1CCCC1c1ccccc1Cl (stereo not shown) [Cpd 78]		6.86	94		
COc1ccccc1C1CCCN1C(=O)C(Nc1cccc(F)c1)c1ccc(C(F)(F)F)cc1 (stereo not shown) [Cpd 79]		7.30	98		
CC(Nc1ccccc1)(C(=O)N1CCCC1c1ccccc1Cl)c1ccc(C(F)(F)F)cc1 (stereo not shown) [Cpd 80, 1-[2-(2-Chloro-phenyl)-pyrrolidin-1-yl]-2-phenylamino-2-(4-trifluoromethyl-phenyl)-propan-1-one]			69		
O=C(C(Nc1ccccc1)c1ccc(Cl)cc1)N1CCCC1c1ccccc1Cl (stereo not shown) [Cpd 84]		7.82	98		
COc1ccccc1C1CCCN1C(=O)C(Nc1ccccc1)c1ccc(Cl)cc1 (stereo not shown) [Cpd 85]		8.22	97		

Compound	inhibition at 1 µM (canine TRPM8 HEK293, icilin) [%]	pIC50	inhibition at 0.5 µM (canine TRPM8 HEK293, icilin) [%]	% Inh @ 0.5 μM (canine TRPM8 HEK293, icilin) [%]	inhibition at 0.2 µM (HEK293, 0.2 μM compound, canine TRPM8 HEK293, icilin) [%]
O=C(C(Nc1ccccc1)c1ccc(Cl)cc1)N1CCCC1c1ccccc1 (stereo not shown) [Cpd 86]		7.82	97		
O=C(C(Nc1ccccc1)c1ccc(Cl)cc1)N1Cc2ccccc2C1 (stereo not shown) [Cpd 87]		7.09	97		
O=C(C(Nc1ccccc1)c1ccc(Cl)cc1)N1CCc2ccccc2C1 (stereo not shown) [Cpd 88]		7.02	99		
O=C(C(Nc1ccccc1F)c1ccc(Br)cc1)N1CCCC1c1ccccc1Cl (stereo not shown) [Cpd 89]		7.70	98		
O=C(C(Nc1ccccc1F)c1ccc(Br)cc1)N1CCCC1c1ccccc1 (stereo not shown) [Cpd 91]		7.85	97		
O=C(C(Nc1ccccc1F)c1ccc(Br)cc1)N1Cc2ccccc2C1 (stereo not shown) [Cpd 92]		7.05	98		
O=C(C(Nc1ccccc1F)c1ccc(Br)cc1)N1CCc2ccccc2C1 (stereo not shown) [Cpd 93]		6.75	95		
O=C(C(Nc1ccccc1)c1cccc(C(F)(F)F)c1)N1CCCC1c1ccccc1Cl (stereo not shown) [Cpd 97]		7.05	100		
COc1ccccc1C1CCCN1C(=O)C(Nc1ccccc1)c1cccc(C(F)(F)F)c1 (stereo not shown) [Cpd 98]		7.25	100		
O=C(C(Nc1ccccc1)c1cccc(C(F)(F)F)c1)N1Cc2ccccc2C1 (stereo not shown) [Cpd 99]		7.05	99		
O=C(C(CNc1ccccc1)c1ccc(C(F)(F)F)cc1)N1Cc2ccccc2C1 (stereo not shown) [Cpd 100]		6.54	90		
O=C(C(CNc1ccccc1)c1ccc(C(F)(F)F)cc1)N1CCc2ccccc2C1 (stereo not shown) [Cpd 102]		6.80	98		
O=C(C(CNc1ccccc1)c1ccc(C(F)(F)F)cc1)N1CCCC1c1ccccc1F (stereo not shown) [Cpd 103]		6.74	75		
COc1ccc(C(Nc2sccc2C#N)C(=O)N2CCCC2c2ccccc2Cl)cc1 (stereo not shown) [Cpd 105]		6.36	88		
O=C(C(CNc1ccccc1F)c1ccc(C(F)(F)F)cc1)N1Cc2ccccc2C1 (stereo not shown) [Cpd 106]		6.77	98		
O=C(C(CNc1ccccc1F)c1ccc(C(F)(F)F)cc1)N1CCCC1c1ccccc1 (stereo not shown) [Cpd 108]		6.48	88		
O=C(C(Nc1ccccc1F)c1ccc(Cl)cc1)N1CCCC1c1ccccc1Cl (stereo not shown) [Cpd 110]		7.26	98		
COc1ccccc1C1CCCN1C(=O)C(Nc1ccccc1F)c1ccc(Cl)cc1 (stereo not shown) [Cpd 111]		7.89	96		
O=C(C(Nc1ccccc1F)c1ccc(Cl)cc1)N1CCCC1c1ccccc1 (stereo not shown) [Cpd 112]		7.74	96		
O=C(C(Nc1ccccc1F)c1ccc(Cl)cc1)N1Cc2ccccc2C1 (stereo not shown) [Cpd 113]		7.21	98		
O=C(C(Nc1ccccc1F)c1ccc(Cl)cc1)N1Cc2cccc(F)c2C1 (stereo not shown) [Cpd 114]		6.90	98		
O=C(C(Nc1ccccc1F)c1ccc(Cl)cc1)N1CCCC1c1ccccc1F (stereo not shown) [Cpd 115]		8.00	97		
